# PMC8795738, “The Tarantula Venom Peptide Eo1a Binds to the Domain II S3-S4 Extracellular Loop of Voltage-Gated Sodium Channel NaV1.8 to Enhance Activation” (Frontiers in Pharmacology, 2022)
# Where a SMILES comes first, the peptide text is derived from it. Bridges are numbered along the chain shown (N, C = ends).
# How the values were obtained:
# [1] = target: NaV1.8 (Homo sapiens, UniProt Q9Y5Y9); assay: Concentration-response of NaV1.8 peak current, QPatch whole-cell patch-clamp; type: cell-based; conditions: CHO cells, hNaV1.8/β3, holding −90 mV, 50 ms pulse to +10 mV every 20 s, 5 min incubation, ECS with 0.1% BSA, 1 μM TTX, pH 7.4, four-parameter Hill fit, mean ± SEM, n = 7 cells, read-out: EC50 for increase in NaV1.8 peak current
# Method: (§1) Human Embryonic Kidney (HEK) 293 cells stably expressing human NaV1.1 to NaV1.7/β1 (SB Drug Discovery, Glasgow, United Kingdom), Chinese Hamster Ovary (CHO) cells stably expressing human NaV1.8/β3 in a tetracycline-inducible system (ChanTest, Cleveland, OH, United States), and HEK293 cells stably expressing rat transient receptor potential vanilloid 1 (TRPV1) were cultured as previously described ([Yin et al., 2020]). Human KV2.1 and NaV1.7 mutants were transiently transfected into HEK293 cells stably expressing β1/β2 using Lipofectamine 2000 (Thermo Fisher Scientific, Scoresby, VIC, Australia) and used for patch-clamp experiments 48 h after transfection. Cells were grown in an incubator at 37°C with 5% CO2 and passaged every 3–4 d (at 70–80% confluency) using TrypLE Express (Thermo Fisher Scientific).
# Automated whole-cell patch-clamp recordings were performed with a QPatch-16 automated electrophysiology platform (Sophion Bioscience, Ballerup, Denmark) using single-hole (QPlate 16 with a standard resistance of 2 ± 0.4 MΩ) or multi-hole (QPlate 16X with a standard resistance 0.2 ± 0.04 MΩ, NaV1.8 only) as previously described ([McMahon et al., 2020]). […]
# [2] = tested on: NaV1.3; assay: I-V protocol, whole-cell patch-clamp, NaV1.3; type: cell-based, human; conditions: Eo1a 10 μM
# Method: as §1
# (§2) Automated whole-cell patch-clamp recordings were performed with a QPatch-16 automated electrophysiology platform (Sophion Bioscience, Ballerup, Denmark) using single-hole (QPlate 16 with a standard resistance of 2 ± 0.4 MΩ) or multi-hole (QPlate 16X with a standard resistance 0.2 ± 0.04 MΩ, NaV1.8 only) as previously described ([McMahon et al., 2020]).
# (§3) The extracellular solution (ECS) consisted of (in mM) 145 NaCl (replaced with 70 choline chloride for NaV1.4, NaV1.5 and NaV1.7), 4 KCl, 2 CaCl2, 1 MgCl2, 10 HEPES, and 10 glucose, pH to 7.4 with NaOH (adjusted to 305 mOsm/L with sucrose). For NaV recordings the intracellular solution (ICS) consisted of (in mM) 140 CsF, 1 EGTA, 5 CsOH, 10 HEPES, and 10 NaCl, pH to 7.3 with CsOH (adjusted to 320 mOsm/L with sucrose). For KV2.1 recordings the ICS consisted of (in mM) 50 KCl, 60 KF, 10 EGTA, 10 HEPES, 10 NaCl pH to 7.3 with KOH (adjusted to 320 mOsm/L with sucrose). […]
# (§4) The time constant of fast inactivation (τ) was computed by fitting the current decay traces with a single exponential function using QPatch Assay Software 5.6 (Sophion). The time to peak was calculated from pulse onset to peak inward current using QPatch Assay Software 5.6 (Sophion).
# [3] = tested on: NaV1.6; assay: I-V protocol, whole-cell patch-clamp, NaV1.6; type: cell-based, human; conditions: Eo1a 10 μM
# Method: as §1, §2, §3, §4
# [4] = tested on: WT mice; assay: Spontaneous pain after intraplantar injection, WT littermate mice; type: in vivo, mouse; conditions: Eo1a intraplantar, mean ± SEM, n = 3–4 mice
# Source text: (§5) Adult male C57BL/6J mice aged 4–8 weeks were sourced from the Animal Resource Centre (Canning Vale, Western Australia). Adult male NaV1.8 knockouts ([Nassar et al., 2004]) (aged 8–11 weeks) and wild-type littermates were housed and tested at University College London. Animals were housed in groups of three or four per cage under 12-h light-dark cycles and were provided with standard rodent chow and water ad libitum. Ethical approval for experiments involving animals was obtained from The University of Queensland animal ethics committee (TRI/IMB/093/17, IMB/PACE/421/18) and the United Kingdom Home Office (project licence PPL 70/7382). All experiments were conducted in accordance with the International Association for the Study of Pain Guidelines for the Use of Animals in Research and the Australian Code of Practice for the Care and Use of Animals for Scientific Purposes, 8th edition (2013).
# (§6) Eo1a (1 μM or 10 μM) was diluted in saline/0.1% BSA and administered by intraplantar injection to the left hind paw of mice in a volume of 40 μl under isoflurane (3%) anaesthesia, and spontaneous pain behaviours (licks, bites, shakes, and lifts of the hind paw) were counted by a blinded investigator for up to 40 min after the injection.
# [5] = tested on: NaV1.8 KO mice; assay: Spontaneous pain after intraplantar injection, NaV1.8 knockout mice; type: in vivo, mouse; conditions: Eo1a intraplantar, significantly reduced vs WT, *p < 0.05 unpaired t-test, mean ± SEM, n = 3–4 mice
# Source text: as §5, §6
# [6] = tested on: NaV1.7 with DIV S1-S2 loop of NaV1.8; assay: Voltage-dependence of activation, NaV1.7/NaV1.8 chimera DIV S1-S2; type: cell-based, human; conditions: Eo1a 10 μM; NaV1.7 with NaV1.8 DIV S1-S2; HEK293 β1/β2, transient; mean ± SEM, n = 3–6 cells
# Method: as §1
# Wild-type (WT) hNaV1.7 cDNA (NM_002,977, a gift from Dr James Cox, University College London) was subjected to in vitro site-directed mutagenesis using the QuikChange™ XL mutagenesis kit (Agilent Technologies) following the manufacturer’s instructions. NaV1.7 mutants were generated by substituting the domain II (DII) S1-S2 loop, the DII S3-S4 loop, the domain IV (DIV) S1-S2 loop and the DIV S3-S4 loop in NaV1.7 with the corresponding regions of NaV1.8. The mutations were verified by sequencing at the Brisbane node of the Australian Genome Research Facility. […]
# Sequence of NaV1.8 (Q9Y5Y9 whole entry): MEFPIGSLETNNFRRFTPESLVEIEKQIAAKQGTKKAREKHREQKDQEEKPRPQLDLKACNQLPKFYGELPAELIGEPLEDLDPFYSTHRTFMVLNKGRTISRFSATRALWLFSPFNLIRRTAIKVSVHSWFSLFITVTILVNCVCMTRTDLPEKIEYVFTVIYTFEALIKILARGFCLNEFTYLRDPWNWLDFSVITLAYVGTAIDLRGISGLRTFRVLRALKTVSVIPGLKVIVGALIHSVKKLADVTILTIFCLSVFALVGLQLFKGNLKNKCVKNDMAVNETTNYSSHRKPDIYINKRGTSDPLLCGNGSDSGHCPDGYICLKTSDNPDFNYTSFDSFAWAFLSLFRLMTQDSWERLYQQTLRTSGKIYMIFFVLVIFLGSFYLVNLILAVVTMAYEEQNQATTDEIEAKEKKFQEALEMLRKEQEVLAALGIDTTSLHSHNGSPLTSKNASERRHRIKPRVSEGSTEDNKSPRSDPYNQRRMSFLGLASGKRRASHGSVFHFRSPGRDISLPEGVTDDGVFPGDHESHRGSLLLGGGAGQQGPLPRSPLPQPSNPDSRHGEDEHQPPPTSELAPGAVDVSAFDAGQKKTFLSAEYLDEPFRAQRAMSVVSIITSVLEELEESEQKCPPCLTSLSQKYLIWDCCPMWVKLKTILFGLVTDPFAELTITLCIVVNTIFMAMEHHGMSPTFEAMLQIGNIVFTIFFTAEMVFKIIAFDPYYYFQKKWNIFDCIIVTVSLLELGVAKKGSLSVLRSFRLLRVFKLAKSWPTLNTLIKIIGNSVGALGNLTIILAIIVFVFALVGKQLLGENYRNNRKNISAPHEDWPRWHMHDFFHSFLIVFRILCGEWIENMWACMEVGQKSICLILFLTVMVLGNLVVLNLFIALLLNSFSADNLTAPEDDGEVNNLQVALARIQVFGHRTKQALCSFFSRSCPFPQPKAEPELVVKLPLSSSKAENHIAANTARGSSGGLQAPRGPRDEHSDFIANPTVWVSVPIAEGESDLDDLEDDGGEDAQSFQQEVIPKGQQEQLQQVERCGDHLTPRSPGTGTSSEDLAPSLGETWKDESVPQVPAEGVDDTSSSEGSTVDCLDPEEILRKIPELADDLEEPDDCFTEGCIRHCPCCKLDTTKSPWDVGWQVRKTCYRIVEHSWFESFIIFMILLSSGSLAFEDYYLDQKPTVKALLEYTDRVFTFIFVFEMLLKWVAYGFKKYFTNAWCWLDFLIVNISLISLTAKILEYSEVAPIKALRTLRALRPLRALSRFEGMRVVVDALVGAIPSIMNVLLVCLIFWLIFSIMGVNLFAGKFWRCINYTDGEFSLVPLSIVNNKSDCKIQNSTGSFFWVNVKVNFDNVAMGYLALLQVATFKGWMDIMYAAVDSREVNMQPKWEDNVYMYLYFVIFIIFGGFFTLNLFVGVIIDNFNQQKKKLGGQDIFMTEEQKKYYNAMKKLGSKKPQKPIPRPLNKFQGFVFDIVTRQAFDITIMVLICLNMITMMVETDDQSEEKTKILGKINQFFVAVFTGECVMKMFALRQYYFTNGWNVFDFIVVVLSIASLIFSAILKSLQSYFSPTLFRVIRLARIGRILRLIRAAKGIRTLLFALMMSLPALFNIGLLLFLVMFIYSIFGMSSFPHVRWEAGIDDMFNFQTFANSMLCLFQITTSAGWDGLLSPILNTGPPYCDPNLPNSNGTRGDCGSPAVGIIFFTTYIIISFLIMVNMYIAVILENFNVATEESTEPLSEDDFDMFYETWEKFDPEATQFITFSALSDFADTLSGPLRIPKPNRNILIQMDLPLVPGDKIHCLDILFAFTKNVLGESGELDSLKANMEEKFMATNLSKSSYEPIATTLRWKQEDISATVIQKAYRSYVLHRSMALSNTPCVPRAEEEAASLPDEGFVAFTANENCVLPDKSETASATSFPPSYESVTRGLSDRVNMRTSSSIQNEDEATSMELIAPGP
smiles,measurement,setting,value
"CC[C@H](C)[C@@H]1NC(=O)[C@H](CCCNC(=N)N)NC(=O)[C@@H]2CSSC[C@@H]3NC(=O)CNC(=O)CNC(=O)[C@H](CC(C)C)NC(=O)[C@H](Cc4ccccc4)NC(=O)[C@H](Cc4c[nH]c5ccccc45)NC(=O)[C@H](CCCNC(=N)N)NC(=O)[C@@H](NC(=O)[C@@H](N)CC(=O)O)CSSC[C@H](NC(=O)[C@H](CSSC[C@@H](C(=O)N[C@@H](C)C(=O)N[C@@H](Cc4c[nH]c5ccccc45)C(=O)N[C@@H](CC(=O)O)C(=O)NCC(=O)N[C@H](C(=O)N[C@@H](Cc4ccccc4)C(N)=O)[C@@H](C)O)NC(=O)[C@H](Cc4ccc(O)cc4)NC(=O)[C@H](CCCCN)NC(=O)[C@H]([C@@H](C)CC)NC(=O)[C@H](Cc4ccc(O)cc4)NC(=O)CNC(=O)[C@H](CC(=O)O)NC1=O)NC(=O)[C@H](CC(=O)O)NC(=O)[C@H](CO)NC(=O)[C@H](CC(=O)O)NC(=O)[C@H](CCCCN)NC(=O)[C@H](CO)NC3=O)C(=O)N[C@@H](CCCCN)C(=O)N[C@@H](Cc1c[nH]cn1)C(=O)N[C@@H](CC(C)C)C(=O)N[C@@H](C)C(=O)N2 [Eo1a] (H-DCRWFLGGCSKDSDCCKHLACRIDGYIKYCAWDGTF-NH2; disulfide 2-16, 9-21, 15-30 (inferred); N-terminus assumed)",EC50,[1],894 ± 146 nM
same,V1/2 activation,"[2]; 5 min, control −20.4 ± 2.2 mV, *p < 0.05, mean ± SEM, n = 4–6",−27.9 mV
same,V1/2 inactivation (steady-state fast inactivation),"[2]; 5 min, control −63.2 ± 1.0 mV, mean ± SEM, n = 4–6",−63.0 ± 1.5
same,effect on inactivation kinetics,[2]; test pulse −20 mV,minimal effect
same,V1/2 activation,"[3]; 5 min, control −22.7 ± 1.0 mV, *p < 0.05, mean ± SEM, n = 4–6",−35.0 mV
same,V1/2 inactivation (steady-state fast inactivation),"[3]; 5 min, control −56.3 ± 1.1 mV, mean ± SEM, n = 4–6",−56.2 ± 1.0
same,effect on fast inactivation,[3]; test pulse −20 mV,delayed fast-inactivation
same,spontaneous pain (flinches),[4],392 ± 45 Flinches/15 min
same,spontaneous pain (flinches),[5],216 ± 26 Flinches/15 min
same,ΔV1/2 activation,[6],−4.8 ± 0.6 mV
